SMILES strings stand for the structures.

For data set [1], the system named is isolated papillary muscles of the guinea-pig. As to the kind of experiment: Isolated papillary muscles: changes in the contraction amplitude. The settings on record: field excitation 250/minute; for activation at 1 µM: at ED100, read-out: Δ% (percent change of contraction amplitude versus control) at ED100; for EC100: read-out: ED100 (effective concentration, maximal effect), contraction amplitude; for EC50: read-out: ED50 (effective concentration, semimaximal effect), contraction amplitude. The source says: Papillary muscles from the left ventricle of the guinea-pig are mounted, like isolated vessels, in an organ bath in a way to allow the measurement of isometric contractions. Electric excitation is achieved by means of field excitation at a frequency of 250/minute (duration of excitation 10 msec., amplitude supramaximal).
Changes in the contraction amplitude of isolated
papillary muscles of the guinea-pig (excitation
frequency 250/minute, duration of excitation 10 msec.,
excitation amplitude 10-20 V field excitation). IC =
inhibition concentration, ED = effective concentration
in mol/l. Indices 50 and 100 correspond to semi-
maximal and maximal effect. Δ% = percent change of
contraction amplitude versus control.

Data set [2] has as its system a. saphena (arteria saphena). The experiment in a line: Isolated smooth muscle: inhibition of K+-depolarization contraction of vessel rings, a. saphena. Further details: species or system rabbit. The settings on record: Oryctolagus cuniculus, organ bath, mean diameter 0.5-1.0 mm, read-out: Concentration (IC50) effecting a semimaximal inhibition of the K+-depolarization contraction of vessel rings, a. saphena. The source says: (§1) Of rabbits (vessel ring segments, a basilaris, a. coronaria, a. saphena) are mounted in an organ bath in a way to allow the measurement of isometric contractions. Contractile activity is elicited by a potassium depolarization in Tyrode's solution. This experimetnal set-up is a well known standard model for the identification of substances blocking the calcium channels opened during the potassium depolarization (Fleckenstein,Calcium Antagonism in Heart and Smooth Muscle, J. Wiley & Sons, 1983).
(§2) Concentrations (IC50, mol/l) of compounds
(§3) effecting a semimaximal inhibition of the K+-
(§4) depolarization contraction of vessel rings in the
(§5) organ bath. A. bas. = arteria basilaris, a. cor. =
(§6) arteria coronaria, a. saph. = arteria saphena of
(§7) the rabbit; mean diameter 0.5-1.0 mm.

The subject of data set [3] is a. basilaris (arteria basilaris). As to the kind of experiment: Isolated smooth muscle: inhibition of K+-depolarization contraction of vessel rings, a. basilaris. Also on record: species or system rabbit. To be noted: organ bath, mean diameter 0.5-1.0 mm, read-out: Concentration (IC50) effecting a semimaximal inhibition of the K+-depolarization contraction of vessel rings, a. basilaris.
Excerpt: as §1, §2, §3, §4, §5, §6, §7

The test system of data set [4] is a. coronaria (arteria coronaria). The experiment in a line: Isolated smooth muscle: inhibition of K+-depolarization contraction of vessel rings, a. coronaria. Also on record: species or system rabbit. The settings on record: organ bath, mean diameter 0.5-1.0 mm, read-out: Concentration (IC50) effecting a semimaximal inhibition of the K+-depolarization contraction of vessel rings, a. coronaria.
Excerpt: as §1, §2, §3, §4, §5, §6, §7

The subject of data set [5] is rats anesthetized with inactin. As to the kind of experiment: Anesthetized rat (inactin): blood pressure and heart rate. To be noted: 100 mg/kg ID (n=3). Format: in vivo. As for the experimental part:
This test model using rats anesthetized with inactin served to test Example Number 1a in a dosage of 100 mg/kg ID (n=3). The heart rate remained unchanged whereas the blood pressure fell by 40% below the starting value (75 minutes PA).

Data set [6] relates to spontaneously hypertensive rats (SHR). As to the kind of experiment: Spontaneously hypertensive rat: systolic blood pressure after oral administration. Format: in vivo. The source says:
This test model employing hypertension of genetic origin served to test Example Number 1(a) for its antihypertensive efficacy.
Effect of Example Number 1a on the systolic blood
pressure of spontaneously hypertensive rats (SHR)

Setting [7] is: Cavia porcellus, 10 msec., 10-20 V, maximal effect.
[8] abbreviates: Cavia porcellus, 10 msec., 10-20 V, semimaximal effect.

`CCOC(=O)C1=C(C)Nc2ncn(C(C)C)c(=O)c2C1c1ccccc1F` (racemic) [Example 3, (±)-5-(2-Fluorophenyl)-3,4,5,8-tetrahydro-3-isopropyl-7-methyl-4-oxo-pyrido[2,3-d]pyrimidine-6-carboxylic acid ethyl ester]: the activation at 1 µM in data set [1] (Cavia porcellus) amounted to 30%. The EC100 in data set [1] (setting [7]) worked out at 1 µM. Moreover, the EC50 in data set [1] (setting [8]) came to 22 nM. Moreover, the “Δ% (percent change of contraction amplitude versus control) at ED50” value in data set [1] is on record as “+15%”. Besides, the IC50 in data set [2] is 9000 nM; in data set [3], 20000 nM; in data set [4], 20000 nM.
Take `CCOC(=O)C1=C(C)Nc2nc[nH]c(=O)c2C1c1ccccc1F` (racemic) [Example 1a, (±)-5-(2-Fluorophenyl)-3,4,5,8-tetrahydro-7-methyl-4-oxo-pyrido[2,3-d]pyrimidine-6-carboxylic acid ethyl ester]: the heart rate entry in data set [5] is “unchanged”. Further, the “blood pressure fell below the starting value” in data set [5] (75 minutes PA) was 40%. Moreover, in data set [1] (Cavia porcellus), the activation at 1 µM turned out to be 52%. Further, the EC100 in data set [1] (setting [7]) was 1 µM. The EC50 in data set [1] (setting [8]) came out at 15 nM. Further, in data set [1], the “Δ% (percent change of contraction amplitude versus control) at ED50” value is reported as “+26%”. In addition, the “Change of systol. blood pressure in percent” value (from here on “Change … in percent”) in data set [6] (12.5 mg/kg oral, 30 min.) is reported as -11%; in data set [6] (12.5 mg/kg oral, 120 min.), -4%; in data set [6] (12.5 mg/kg oral, 240 min.), “+2%”; in data set [6] (12.5 mg/kg oral, 24 h) it was -1%; in data set [6] (25 mg/kg oral, 30 min.) it was -24%; in data set [6] (25 mg/kg oral, 120 min.), -2%. The “Change … in percent” value in data set [6] (25 mg/kg oral, 240 min.) is recorded as -1%; in data set [6] (25 mg/kg oral, 24 h), “+5%”; in data set [6] (50 mg/kg oral, 30 min.) it was -32%; in data set [6] (50 mg/kg oral, 120 min.), -8%; in data set [6] (50 mg/kg oral, 240 min.), “+1%”; in data set [6] (50 mg/kg oral, 24 h), “+4%”. Further, the “Change … in percent” value in data set [6] (100 mg/kg oral, 30 min.) is given as -40%; in data set [6] (100 mg/kg oral, 120 min.), -19%; in data set [6] (100 mg/kg oral, 240 min.), “+2%”; in data set [6] (100 mg/kg oral, 24 h) it was -4%. The “antihypertensive effect after oral administration” value in data set [6] (oral, result in words) was “good and, dose-dependent, lasting antihypertensive effect”. Also, the figures for the IC50 in data set [2], in data set [3] and in data set [4] were 1200 nM, 1800 nM and 1500 nM, respectively.
Consider `CCOC(=O)C1=C(C)Nc2nc[nH]c(=O)c2C1c1ccccc1` (racemic) [Example 1, (±)-3,4,5,8-Tetrahydro-7-methyl-4-oxo-5-phenylpyrido[2,3-d]pyrimidine-6-carboxylic acid ethyl ester], for which, in data set [1] (Cavia porcellus, at IC100, read-out: Δ% (percent change of contraction amplitude versus control) at IC100), the inhibition at 100 µM was found to be 27%. For the same compound, the IC100 in data set [1] (Cavia porcellus, 10 msec., 10-20 V, maximal effect, read-out: IC100 (inhibition concentration, maximal effect), contraction amplitude) came out at 100 µM. Also, the IC50 in data set [1] (Cavia porcellus, 10 msec., 10-20 V, semimaximal effect, read-out: IC50 (inhibition concentration, semimaximal effect), contraction amplitude) is 20000 nM; in data set [2], 7000 nM; in data set [3] it was 8000 nM; in data set [4], 10000 nM. In data set [1] (at IC50), the “Δ% (percent change of contraction amplitude versus control) at IC50” value is reported as -13%.
With `CCOC(=O)C1=C(C)Nc2ncn(C(C)C)c(=O)c2C1c1ccccc1` (racemic) [Example 3a, (±)-3,4,5,8-Tetrahydro-3-isopropyl-7-methyl-4-oxo-5-phenyl-pyrido[2,3-d]pyrimidine-6-carboxylic acid ethyl ester], the results for the IC50 in data set [3] and in data set [4] were 40 nM and 45 nM, respectively.
On the same counts, the results for `CCOC(=O)C1=C(C)Nc2nc[nH]c(=O)c2C1c1ccccc1[N+](=O)[O-]` (racemic) [Example 1b, (±)-3,4,5,8-Tetrahydro-7-methyl-5-(2-nitrophenyl)-4-oxo-pyrido[2,3-d]pyrimidine-6-carboxylic acid ethyl ester] are roughly 400 nM and roughly 1000 nM.

The record behind these values is patent publication US4677108A, “4-oxo-pyrido[2,3-d]pyrimidinone derivatives” (Warner-Lambert Company, priority 1984, dated 1987).
